Source: patent US9073941B2, “Compounds and methods for treating tuberculosis infection” (Academia Sinica, priority 2010, dated 2015)
In brackets after ≈: the same amount, converted by molar mass. Like-named read-outs stand apart in the source and are kept apart here.

Key:
Mtb PDH (Lpd+DlaT+AceE) = Mtb PDH (Lpd+DlaT+AceE) (Mycobacterium tuberculosis (strain ATCC 25618 / H37Rv), UniProt P9WHH9); assay: PDH Inhibition Activity; assay type: biochemical
[1] = tested on: Mycobacterium tuberculosis strains H37Rv; assay: In Vitro Antitubercular H37Rv MIC Assay (resazurin); assay type: cell-based; conditions: 168 h
[2] = molecular target: lipoamide dehydrogenase (Lpd) (Mycobacterium tuberculosis (strain ATCC 25618 / H37Rv), UniProt P9WHH9); assay: Lipoamide Dehydrogenase (Lpd) Inhibition Assay; assay type: biochemical
[3] = concentration required for 50% inhibition of PDH activity, fluorescence ex 360 nm / em 460 nm, read-out: PDH IC50
[4] = growth of Mycobacterium tuberculosis H37Rv, 7H9 medium, 7 days, tested 8-0.25 μg/mL
[5] = concentration required for 50% inhibition of LPD activity, DTNB detection, OD405 nm
[6] = Mycobacterium tuberculosis, H37RV

| SMILES | IC50 (Mtb PDH (Lpd+DlaT+AceE); [3]) [nM] | MIC [1, 4] [µg/mL] | IC50 [2, 5] [nM] | MIC [1, 6] [µg/mL] | IC50 [2] [nM] | IC50 (Mtb PDH (Lpd+DlaT+AceE)) [nM] |
| --- | --- | --- | --- | --- | --- | --- |
| c1ccc2c(c1)ccn1c3ccccc3cc21 [Compound 401] | 140 | > 8 |  |  |  |  |
| CCn1nc(-c2ccc(C(=O)OC)cc2)nc2c(=O)n(C)c(=O)nc1-2 [Compound 621] | < 40 |  | < 40 |  |  |  |
| COc1ccc(CCI)cc1 [Compound 303] | < 40 | 2 (≈ 7.63 µM) |  |  |  |  |
| CCCCn1c(NS(=O)(=O)c2ccc(C)cc2)c(C#N)c2nc3ccccc3nc21 [Compound 1005] | > 5000 |  | 900 ± 130 |  |  |  |
| C=CCn1c(NS(=O)(=O)c2ccccc2)c(C#N)c2nc3ccccc3nc21 [Compound 1002] | 3320 | > 8 | 980 ± 150 |  |  |  |
| O=C1C(=O)c2cc([N+](=O)[O-])ccc2-c2ccccc21 [Compound 904] | 691 | > 8 | 640 ± 50 |  |  |  |
| COc1ccc(-c2nc3c(=O)n(C)c(=O)nc-3n(C)n2)cc1 [Compound 605] | < 40 | 8 (≈ 26.7 µM) | 70 ± 10 |  |  |  |
| Cn1nc(-c2ccc(C(F)(F)F)cc2)nc2c(=O)n(C)c(=O)nc1-2 [Compound 619] | < 40 |  | < 40 |  |  |  |
| O=C1c2ccccc2C(O)(O)[C@@]1(O)[C@]1(O)C(=O)c2ccccc2C1(O)O [Compound 101] | 1930 |  |  | > 8 |  |  |
| O=C1C=C(NCc2ccccc2)c2ccccc2C1=O [Compound 901] | 4280 | 8 (≈ 30.4 µM) | 100 |  |  |  |
| Cc1ccc(-c2nc3c(=O)n(C)c(=O)nc-3n(C)n2)cc1 [Compound 618] |  |  |  |  | < 40 | < 40 |
| Cc1nc2c(=O)n(C)c(=O)nc-2n(C)n1 [Compound 611] | < 40 |  | 80 ± 10 | 4 (≈ 19.3 µM) |  |  |
| COCCCn1c(N)c(C(=O)NCCC(C)C)c2nc3ccccc3nc21 [Compound 1012] | > 5000 |  | > 4000 |  |  |  |
| CC1(C)C(=O)N=C2c3ccccc3C(=O)C(=O)C21 (stereo not shown) [Compound 903] | 1170 | > 8 | 860 ± 80 |  |  |  |
| Cn1c(N)c(C(=O)NCc2ccccc2)c2nc3ccccc3nc21 [Compound 1013] | > 5000 |  | > 4000 |  |  |  |
| CCn1nc(-c2ccccc2)nc2c(=O)n(C)c(=O)nc1-2 [Compound 602] |  |  |  | > 8 | 230 ± 20 | < 40 |
| CCn1nc(-c2ccccc2Cl)nc2c(=O)n(C)c(=O)nc1-2 [Compound 615] | < 40 |  | < 40 |  |  |  |
| C=CCOCc1ccccc1 [Compound 301] | 760 | 8 (≈ 54 µM) |  |  |  |  |
| CCCCCn1c(NC(=O)c2ccc(Br)o2)c(C#N)c2nc3ccccc3nc21 [Compound 1007] |  |  |  |  | 1360 ± 160 | > 5000 |
| CCOC(=O)c1c(NS(=O)(=O)c2ccccc2)n(CCCOC)c2nc3ccccc3nc12 [Compound 1011] | > 5000 |  | 1310 ± 160 |  |  |  |
| CCCCn1c(NC(=O)c2cccs2)c(C#N)c2nc3ccccc3nc21 [Compound 1006] | > 5000 |  | 860 ± 160 |  |  |  |
| CCn1nc(-c2cccs2)nc2c(=O)n(C)c(=O)nc1-2 [Compound 610] | < 40 |  | < 40 | > 8 |  |  |
| Cn1nc(-c2ccc([N+](=O)[O-])cc2)nc2c(=O)n(C)c(=O)nc1-2 [Compound 614] | < 40 |  | < 40 |  |  |  |
| COc1ccc(NC(=O)CN(C)S(=O)(=O)c2cc(Br)cnc2N)cc1 [Compound 500] |  | > 8 |  |  |  |  |
| CCOC(=O)/C=C\CBr [(XVI)] | 1650 | ≤ 0.25 | 2920 ± 880 |  |  |  |
| O=C(OC[C@H]1O[C@H](OC(=O)c2cc(O)c(O)c(OC(=O)c3cc(O)c(O)c(O)c3)c2)[C@H](OC(=O)c2cc(O)c(O)c(OC(=O)c3cc(O)c(O)c(O)c3)c2)[C@@H](OC(=O)c2cc(O)c(O)c(OC(=O)c3cc(O)c(O)c(O)c3)c2)[C@@H]1OC(=O)c1cc(O)c(O)c(OC(=O)c2cc(O)c(O)c(O)c2)c1)c1cc(O)c(O)c(OC(=O)c2cc(O)c(O)c(O)c2)c1 [Compound 302] | 450 | > 8 |  |  |  |  |

| SMILES | IC50 (Mtb PDH (Lpd+DlaT+AceE); [3]) [nM] | MIC [1, 4] [µg/mL] | IC50 [2, 5] [nM] | MIC [1, 6] [µg/mL] | IC50 [2] [nM] | IC50 (Mtb PDH (Lpd+DlaT+AceE)) [nM] |
| --- | --- | --- | --- | --- | --- | --- |
| CN1N=C(c2ccccc2)Nc2c1nc(O)n(C)c2=O [Compound 701] | < 40 |  |  | > 8 |  |  |
| COc1ccc(-c2nc3c(=O)n(C)c(=O)nc-3n(C)n2)cc1OC [Compound 606] | 1440 | > 8 | 960 ± 70 |  |  |  |
| Cn1nc(-c2ccc(Cl)cc2)nc2c(=O)n(C)c(=O)nc1-2 [Compound 603] |  | > 8 |  |  | 100 ± 10 | < 40 |
| O=C1c2ccccc2-c2nc3nonc3nc21 [Compound 103] | < 40 | ≤ 0.25 |  |  |  |  |
| CCC(C)n1c(NC(=O)c2ccccc2)c(C#N)c2nc3ccccc3nc21 (stereo not shown) [Compound 1004] | > 5000 |  | 870 ± 100 |  |  |  |
| CCCCn1c(NC(=O)c2ccccc2)c(C#N)c2nc3ccccc3nc21 [Compound 1003] | > 5000 |  | 520 ± 70 |  |  |  |
| Nc1ccc2c(c1)C(=O)C(=O)c1ccccc1-2 [Compound 902] | 788 | > 8 | 670 ± 70 |  |  |  |
| Nc1c(O)ccc2nsnc12 [Compound 203] | 3670 | > 8 |  |  |  |  |
| Cn1nc(-c2ccccc2)nc2c(=O)n(C)c(=O)nc1-2 [Compound 601] | < 40 |  | < 40 | > 8 |  |  |
| Cn1nc(-c2ccc(F)cc2)nc2c(=O)n(C)c(=O)nc1-2 [Compound 616] |  |  |  |  | < 40 | < 40 |
| CCC(C)n1c(NC(=O)c2ccc(Br)o2)c(C#N)c2nc3ccccc3nc21 (stereo not shown) [Compound 1009] | > 5000 |  | 1650 ± 230 |  |  |  |
| CCn1nc(-c2ccccc2C)nc2c(=O)n(C)c(=O)nc1-2 [Compound 613] | < 40 |  | < 40 |  |  |  |
| CCn1nc(/C=C/c2ccccc2)nc2c(=O)n(C)c(=O)nc1-2 [Compound 609] | < 40 |  | < 40 | > 8 |  |  |
| CC(=O)C(C(C)=O)C1=CC(=O)C(=O)c2ccccc21 [Compound 906] | > 5000 |  | 2150 ± 430 |  |  |  |
| CCn1nc(-c2ccc([N+](=O)[O-])cc2)nc2c(=O)n(C)c(=O)nc1-2 [Compound 620] | < 40 |  | < 40 |  |  |  |
| N#Cc1c(NC(=O)c2ccc(Cl)c([N+](=O)[O-])c2)n(Cc2ccccc2)c2nc3ccccc3nc12 [Compound 1010] |  |  |  |  | > 4000 | > 5000 |
| CCn1nc(-c2ccc(OC)cc2)nc2c(=O)n(C)c(=O)nc1-2 [Compound 607] | < 40 | 8 (≈ 25.5 µM) | 60 ± 10 |  |  |  |
| CCn1nc(-c2cccnc2)nc2c(=O)n(C)c(=O)nc1-2 [Compound 608] |  |  |  | > 8 | 190 ± 30 | < 40 |
| Cc1ccc(CNC(=O)C2CCN(S(=O)(=O)c3cn(C(C)C)cn3)CC2)cc1 [Compound 501] | 3130 | > 8 | 3050 ± 1050 |  |  |  |
| Cn1nc(-c2ccc(Cl)c(Cl)c2)nc2c(=O)n(C)c(=O)nc1-2 [Compound 604] |  | > 8 |  |  | 140 ± 10 | < 40 |
| CCCc1nc2c(=O)n(C)c(=O)nc-2n(C)n1 [Compound 617] | < 40 |  | < 40 |  |  |  |
| COCCn1c(NC(=O)c2cccc([N+](=O)[O-])c2)c(C#N)c2nc3ccccc3nc21 [Compound 1008] | > 5000 |  | 1050 ± 140 |  |  |  |
| CCOc1ccccc1/C=C1\Cc2ccccc2C1=O [Compound 102] | 1130 | > 8 |  |  |  |  |
| CCCCn1c(NC(=O)c2ccc(Br)o2)c(C#N)c2nc3ccccc3nc21 [Compound 1001] | 954 | > 8 | 1080 ± 240 |  |  |  |
| O=C1C(=O)c2nn(-c3ccccc3)nc2-c2ccccc21 [Compound 905] |  | 8 (≈ 29.1 µM) |  |  | < 40 | < 40 |
